Measurements reported in patent publication US9351987B2, “Compositions for treating heartworm infestation” (CEVA SANTE ANIMALE, priority 2010, dated 2016).
Like-named read-outs stand apart in the source and are kept apart here.

Tests used:
[1] = estimated from reports from non recommended use of the drug; cited from earlier work
[2] = 36-day study, beagle dogs, cited from earlier work
[3] = tested on: Dirofilaria larvae; experiment: Effective ivermectin rate against Dirofilaria larvae; assay type: in vivo; settings: established by the present inventors
Experimental: Currently approved dosages of ivermectin are about 6 mcg/kg orally or 200 mcg/kg subcutaneously. […] Cunningham C P et al., (Am. J. Vet, Res., 2006, 67) brought evidence that this effective rate might be around 0.2 ng/mL of ivermectin in the plasma.
Also, the formulations according to the present invention provide a long term protection, e.g., at least 6 months, 12 months, or 18 months up to 24 months against infections caused by parasites.

[4] = 14-week oral study, cited from earlier work
[5] = Plasma ivermectin concentration after ivermectin implant in dogs; assay type: in vivo, dog
From the text: The concentrations of ivermectin (ng/mL) in the plasma, collected in the jugular vein at day 0 to day 429, are presented in Table 2.
The concentrations of ivermectin in the plasma, collected in the jugular vein, have been evaluated during 429 days for dogs A and […] (Table 2, Example 1) or just dosed until D365 for dogs C and D.

[6] = tested on: Dirofilaria larvae; settings: cited from earlier work

CC[C@H](C)[C@H]1O[C@]2(CC[C@@H]1C)C[C@@H]1C[C@@H](C/C=C(\C)[C@@H](O[C@H]3C[C@H](OC)[C@@H](O[C@H]4C[C@H](OC)[C@@H](O)[C@H](C)O4)[C@H](C)O3)[C@@H](C)/C=C/C=C3\CO[C@@H]4[C@H](O)C(C)=C[C@@H](C(=O)O1)[C@]34O)O2 [Ivermectin]
Share of collie dogs highly sensitive to ivermectin [1]: Approximately 30% | Time to steady-state of H2B1a in plasma ([2]; oral 0.5 and 2.0 mg/kg bw): after about three weeks | Average increase in plasma levels on a four-fold increase in the dose ([2]; oral 0.5 vs 2.0 mg/kg bw): eight-fold | Effective rate of ivermectin in the plasma [3]: around 0.1 ng/mL | No Observable Effect Levels (NOEL) ([4]; beagle dogs (4/sex/group)): 0.5 mg/kg bw | Signs developed (four dogs, killed prior to the end of the study) ([4]; beagle dogs, 2.0 mg/kg bw group): tremors, ataxia, anorexia and dehydration | Signs observed ([4]; beagle dogs, 1.0 and 2.0 mg/kg bw): mydriasis and slight weight loss | Ivermectin concentration in plasma ([5]; dog A (6% ivermectin implant), day 1): 6.25 ng/mL | Ivermectin concentration in plasma ([5]; dog A (6% ivermectin implant), day 2): 5.29 ng/mL | Ivermectin concentration in plasma ([5]; dog A (6% ivermectin implant), day 4): 5.25 ng/mL | Ivermectin concentration in plasma ([5]; dog A (6% ivermectin implant), day 10): 2.56 ng/mL | Ivermectin concentration in plasma ([5]; dog A (6% ivermectin implant), day 21): 1.35 ng/mL | Ivermectin concentration in plasma ([5]; dog A (6% ivermectin implant), day 30): 0.91 ng/mL | Ivermectin concentration in plasma ([5]; dog A (6% ivermectin implant), day 39): 1.09 ng/mL | Ivermectin concentration in plasma ([5]; dog A (6% ivermectin implant), day 60): 0.76 ng/mL | Ivermectin concentration in plasma ([5]; dog A (6% ivermectin implant), day 78): 0.67 ng/mL | Ivermectin concentration in plasma ([5]; dog A (6% ivermectin implant), day 99): 0.26 ng/mL | Ivermectin concentration in plasma ([5]; dog A (6% ivermectin implant), day 120): 0.44 ng/mL | Ivermectin concentration in plasma ([5]; dog A (6% ivermectin implant), day 141): 0.28 ng/mL | Ivermectin concentration in plasma ([5]; dog A (6% ivermectin implant), day 162): 0.18 ng/mL | Ivermectin concentration in plasma ([5]; dog A (6% ivermectin implant), day 183): 0.13 ng/mL | Ivermectin concentration in plasma ([5]; dog A (6% ivermectin implant), day 211): 0.14 ng/mL | Ivermectin concentration in plasma ([5]; dog A (6% ivermectin implant), day 239): 0.10 ng/mL | Ivermectin concentration in plasma ([5]; dog A (6% ivermectin implant), day 266): 0.12 ng/mL | Ivermectin concentration in plasma ([5]; dog A (6% ivermectin implant), day 295): 0.07 ng/mL | Ivermectin concentration in plasma ([5]; dog A (6% ivermectin implant), day 329): 0.06 ng/mL | Ivermectin concentration in plasma ([5]; dog A (6% ivermectin implant), day 365): 0.14 ng/mL | Ivermectin concentration in plasma ([5]; dog A (6% ivermectin implant), day 380): 0.14 ng/mL | Ivermectin concentration in plasma ([5]; dog A (6% ivermectin implant), day 395): 0.17 ng/mL | Ivermectin concentration in plasma ([5]; dog A (6% ivermectin implant), day 429): 0.20 ng/mL | Ivermectin concentration in plasma ([5]; dog B (6% ivermectin implant), day 1): 3.50 ng/mL | Ivermectin concentration in plasma ([5]; dog B (6% ivermectin implant), day 2): 3.04 ng/mL | Ivermectin concentration in plasma ([5]; dog B (6% ivermectin implant), day 4): 2.62 ng/mL | Ivermectin concentration in plasma ([5]; dog B (6% ivermectin implant), day 10): 0.97 ng/mL | Ivermectin concentration in plasma ([5]; dog B (6% ivermectin implant), day 21): 1.92 ng/mL | Ivermectin concentration in plasma ([5]; dog B (6% ivermectin implant), day 30): 1.01 ng/mL | Ivermectin concentration in plasma ([5]; dog B (6% ivermectin implant), day 39): 1.02 ng/mL | Ivermectin concentration in plasma ([5]; dog B (6% ivermectin implant), day 60): 0.51 ng/mL | Ivermectin concentration in plasma ([5]; dog B (6% ivermectin implant), day 78): 0.29 ng/mL | Ivermectin concentration in plasma ([5]; dog B (6% ivermectin implant), day 99): 0.11 ng/mL | Ivermectin concentration in plasma ([5]; dog B (6% ivermectin implant), day 120): 0.30 ng/mL | Ivermectin concentration in plasma ([5]; dog B (6% ivermectin implant), day 141): 0.23 ng/mL | Ivermectin concentration in plasma ([5]; dog B (6% ivermectin implant), day 162): 0.10 ng/mL | Ivermectin concentration in plasma ([5]; dog B (6% ivermectin implant), day 183): 0.11 ng/mL | Ivermectin concentration in plasma ([5]; dog B (6% ivermectin implant), day 211): 0.24 ng/mL | Ivermectin concentration in plasma ([5]; dog B (6% ivermectin implant), day 239): 0.05 ng/mL | Ivermectin concentration in plasma ([5]; dog B (6% ivermectin implant), day 266): 0.10 ng/mL | Ivermectin concentration in plasma ([5]; dog B (6% ivermectin implant), day 295): 0.06 ng/mL | Ivermectin concentration in plasma ([5]; dog B (6% ivermectin implant), day 365): 0.06 ng/mL | Ivermectin concentration in plasma ([5]; dog B (6% ivermectin implant), day 380): 0.06 ng/mL | Ivermectin concentration in plasma ([5]; dog B (6% ivermectin implant), day 395): 0.08 ng/mL | Ivermectin concentration in plasma ([5]; dog B (6% ivermectin implant), day 429): 0.06 ng/mL | Ivermectin concentration in plasma ([5]; dog C (4.5% ivermectin implant), day 1): 6.93 ng/mL | Ivermectin concentration in plasma ([5]; dog C (4.5% ivermectin implant), day 2): 6.42 ng/mL | Ivermectin concentration in plasma ([5]; dog C (4.5% ivermectin implant), day 4): 4.77 ng/mL | Ivermectin concentration in plasma ([5]; dog C (4.5% ivermectin implant), day 10): 2.64 ng/mL | Ivermectin concentration in plasma ([5]; dog C (4.5% ivermectin implant), day 21): 2.14 ng/mL | Ivermectin concentration in plasma ([5]; dog C (4.5% ivermectin implant), day 30): 1.79 ng/mL | Ivermectin concentration in plasma ([5]; dog C (4.5% ivermectin implant), day 39): 1.74 ng/mL | Ivermectin concentration in plasma ([5]; dog C (4.5% ivermectin implant), day 60): 0.28 ng/mL | Ivermectin concentration in plasma ([5]; dog C (4.5% ivermectin implant), day 78): 0.17 ng/mL | Ivermectin concentration in plasma ([5]; dog C (4.5% ivermectin implant), day 99): 0.21 ng/mL | Ivermectin concentration in plasma ([5]; dog C (4.5% ivermectin implant), day 120): 0.27 ng/mL | Ivermectin concentration in plasma ([5]; dog C (4.5% ivermectin implant), day 141): 0.26 ng/mL | Ivermectin concentration in plasma ([5]; dog C (4.5% ivermectin implant), day 162): 0.17 ng/mL | Ivermectin concentration in plasma ([5]; dog C (4.5% ivermectin implant), day 183): 0.17 ng/mL | Ivermectin concentration in plasma ([5]; dog C (4.5% ivermectin implant), day 211): 0.15 ng/mL | Ivermectin concentration in plasma ([5]; dog C (4.5% ivermectin implant), day 239): 0.11 ng/mL | Ivermectin concentration in plasma ([5]; dog C (4.5% ivermectin implant), day 266): 0.13 ng/mL | Ivermectin concentration in plasma ([5]; dog C (4.5% ivermectin implant), day 295): 0.13 ng/mL | Ivermectin concentration in plasma ([5]; dog C (4.5% ivermectin implant), day 329): 0.06 ng/mL | Ivermectin concentration in plasma ([5]; dog C (4.5% ivermectin implant), day 365): 0.16 ng/mL | Ivermectin concentration in plasma ([5]; dog D (3% ivermectin implant), day 1): 7.63 ng/mL | Ivermectin concentration in plasma ([5]; dog D (3% ivermectin implant), day 2): 6.95 ng/mL | Ivermectin concentration in plasma ([5]; dog D (3% ivermectin implant), day 4): 4.35 ng/mL | Ivermectin concentration in plasma ([5]; dog D (3% ivermectin implant), day 10): 3.82 ng/mL | Ivermectin concentration in plasma ([5]; dog D (3% ivermectin implant), day 21): 1.23 ng/mL | Ivermectin concentration in plasma ([5]; dog D (3% ivermectin implant), day 30): 1.54 ng/mL | Ivermectin concentration in plasma ([5]; dog D (3% ivermectin implant), day 39): 1.15 ng/mL | Ivermectin concentration in plasma ([5]; dog D (3% ivermectin implant), day 60): 0.84 ng/mL | Ivermectin concentration in plasma ([5]; dog D (3% ivermectin implant), day 78): 0.52 ng/mL | Ivermectin concentration in plasma ([5]; dog D (3% ivermectin implant), day 99): 0.69 ng/mL | Ivermectin concentration in plasma ([5]; dog D (3% ivermectin implant), day 120): 0.87 ng/mL | Ivermectin concentration in plasma ([5]; dog D (3% ivermectin implant), day 141): 0.65 ng/mL | Ivermectin concentration in plasma ([5]; dog D (3% ivermectin implant), day 162): 0.45 ng/mL | Ivermectin concentration in plasma ([5]; dog D (3% ivermectin implant), day 183): 0.51 ng/mL | Ivermectin concentration in plasma ([5]; dog D (3% ivermectin implant), day 211): 0.29 ng/mL | Ivermectin concentration in plasma ([5]; dog D (3% ivermectin implant), day 239): 0.18 ng/mL | Ivermectin concentration in plasma ([5]; dog D (3% ivermectin implant), day 266): 0.22 ng/mL | Ivermectin concentration in plasma ([5]; dog D (3% ivermectin implant), day 295): 0.13 ng/mL | Ivermectin concentration in plasma ([5]; dog D (3% ivermectin implant), day 329): 0.13 ng/mL | Ivermectin concentration in plasma ([5]; dog D (3% ivermectin implant), day 365): 0.09 ng/mL | Effective rate of ivermectin in the plasma ([6]; Cunningham C P et al., Am. J. Vet. Res., 2006, 67): around 0.2 ng/mL | Effect on Dirofilaria larvae ([6]; ivermectin administered per se at 6 mcg/kg, generally reported): able to kill efficiency one month aged Dirofilaria larvae
